# Data from ChEMBL document CHEMBL1201862, “PubChem BioAssay data set” (2004).
#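 Dose response: 5 concentrations. Exposure: 48 h. Format: 96-well plates. Endpoint: linear interpolation; highest concentration if not reached. At the GI50, growth is halved.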 Calls of active or inactive are those of the source. Cut-off read from the data, not from the text of the source: active = GI50 up to about 1.1 µM and inactive = higher.
# Columns and labels:
# Assay in all cases: NCI tumour cell line growth inhibition, 48 h
# [1] = system: 786-0
# [2] = system: SF-268
# [3] = system: SNB-19
# [4] = system: SN12C
# [5] = system: OVCAR-5
# [6] = system: UO-31
# [7] = system: HOP-62
# [8] = system: M14
# [9] = system: KM12
# [10] = system: UACC-257
# [11] = system: Malme-3M
# [12] = system: CAKI-1
# [13] = system: SF-295
# [14] = system: NCI-H522
# [15] = system: LOX IMVI
# [16] = system: HCT-15
# [17] = system: ACHN
# [18] = system: RPMI-8226
# [19] = system: MDA-N
Compound,GI50 [1],GI50 [2],GI50 [3],GI50 [4],GI50 [5],GI50 [6],GI50 [7],GI50 [8],GI50 [9],GI50 [10],GI50 [11],GI50 [12],GI50 [13],GI50 [14],GI50 [15],GI50 [16],GI50 [17],GI50 [18],GI50 [19]
CC(=O)c1cc2c(s1)C(=O)c1sccc1C2=O,0.195 µM (active),0.0267 µM (active),0.0766 µM (active),0.0156 µM (active),0.0664 µM (active),0.0314 µM (active),0.0434 µM (active),0.0274 µM (active),0.118 µM (active),0.0146 µM (active),0.0163 µM (active),0.212 µM (active),0.04 µM (active),0.0175 µM (active),0.0102 µM (active),0.0214 µM,0.0209 µM (active),0.0392 µM (active),–
COC(=O)c1onc(C2OC(C)(C)OC2C(O)COC(c2ccccc2)(c2ccccc2)c2ccccc2)c1C(=O)OC (stereo not given),> 100 µM (inactive),> 100 µM (inactive),> 100 µM (inactive),> 100 µM (inactive),> 100 µM (inactive),> 100 µM (inactive),> 100 µM (inactive),> 100 µM (inactive),> 100 µM (inactive),–,> 100 µM (inactive),–,–,65.8 µM (inactive),–,> 100 µM,> 100 µM (inactive),> 100 µM (inactive),> 100 µM (inactive)
CCOP(=O)(/C=C\n1cnc2c(=O)n(C(C)=O)c(N)nc21)OCC,> 100 µM (inactive),–,> 100 µM (inactive),> 100 µM (inactive),> 100 µM (inactive),–,> 100 µM (inactive),> 100 µM (inactive),> 100 µM (inactive),> 100 µM (inactive),–,> 100 µM (inactive),> 100 µM (inactive),–,> 100 µM (inactive),> 100 µM,> 100 µM (inactive),> 100 µM (inactive),> 100 µM (inactive)
CCC1(COC(NC(=O)c2ccccc2)(C(F)(F)F)C(F)(F)F)COC1,> 100 µM (inactive),> 100 µM (inactive),> 100 µM (inactive),> 100 µM (inactive),> 100 µM (inactive),> 100 µM (inactive),–,> 100 µM (inactive),–,> 100 µM (inactive),–,> 100 µM (inactive),–,–,> 100 µM (inactive),> 100 µM,65.6 µM (inactive),> 100 µM (inactive),> 100 µM (inactive)
NN/C(=N\S(=O)(=O)c1cc2ccccc2s1)Nc1ccc(Cl)cc1,19.6 µM (inactive),22.8 µM (inactive),27 µM (inactive),22 µM (inactive),21.1 µM (inactive),18 µM (inactive),18.8 µM (inactive),20.9 µM (inactive),19.1 µM (inactive),18.5 µM (inactive),–,18.5 µM (inactive),19.9 µM (inactive),–,20.8 µM (inactive),30.5 µM,23.1 µM (inactive),16 µM (inactive),–
C#CC(C)(C)Oc1cc(O)c2c(=O)c3ccccc3n(C)c2c1,53.3 µM (inactive),> 100 µM (inactive),> 100 µM (inactive),> 100 µM (inactive),> 100 µM (inactive),> 100 µM (inactive),94 µM (inactive),> 100 µM (inactive),–,> 100 µM (inactive),> 100 µM (inactive),> 100 µM (inactive),> 100 µM (inactive),> 100 µM (inactive),19.3 µM (inactive),> 100 µM,86.1 µM (inactive),–,–
O=C(C(Cl)=C(Nc1ccccc1)Nc1ccccc1)C(Cl)Cl,22.5 µM (inactive),31.7 µM (inactive),26.2 µM (inactive),25.5 µM (inactive),–,33.6 µM (inactive),15.5 µM (inactive),16.8 µM (inactive),39.1 µM (inactive),82.8 µM (inactive),20.3 µM (inactive),18.8 µM (inactive),34 µM (inactive),19.7 µM (inactive),13.2 µM (inactive),11 µM,27.5 µM (inactive),29.6 µM (inactive),–
O=[N+]([O-])c1ccc(N=P(c2ccccc2)(c2ccccc2)c2ccccc2)n2nnnc12,28.1 µM (inactive),36.1 µM (inactive),33.4 µM (inactive),82.4 µM (inactive),> 100 µM (inactive),78.7 µM (inactive),25.6 µM (inactive),> 100 µM (inactive),66.4 µM (inactive),85.9 µM (inactive),50.8 µM (inactive),45.1 µM (inactive),29 µM (inactive),31 µM (inactive),> 100 µM (inactive),> 100 µM,43.5 µM (inactive),35.7 µM (inactive),–
O=C1CSC(=O)/C1=C\NNc1nc2ccccc2o1,40.2 µM (inactive),30.5 µM (inactive),19.6 µM (inactive),29.6 µM (inactive),60.7 µM (inactive),–,51.8 µM (inactive),19.3 µM (inactive),67.9 µM (inactive),29.7 µM (inactive),31.5 µM (inactive),23.9 µM (inactive),19.9 µM (inactive),–,22.4 µM (inactive),12 µM,32.6 µM (inactive),–,52.1 µM (inactive)
Cc1cccc(C)c1NC(=O)C(=O)Nn1c(NN)nc2ccccc2c1=O,> 100 µM (inactive),> 100 µM (inactive),> 100 µM (inactive),> 100 µM (inactive),> 100 µM (inactive),> 100 µM (inactive),> 100 µM (inactive),> 100 µM (inactive),> 100 µM (inactive),> 100 µM (inactive),> 100 µM (inactive),> 100 µM (inactive),> 100 µM (inactive),> 100 µM (inactive),> 100 µM (inactive),> 100 µM,> 100 µM (inactive),> 100 µM (inactive),–
Cc1cc2c(c(C)c1O)C(C)(C)CN2C(=O)C(C)(C)C,> 100 µM (inactive),> 100 µM (inactive),> 100 µM (inactive),> 100 µM (inactive),> 100 µM (inactive),74.5 µM (inactive),> 100 µM (inactive),80.7 µM (inactive),> 100 µM (inactive),> 100 µM (inactive),–,–,> 100 µM (inactive),> 100 µM (inactive),> 100 µM (inactive),> 100 µM,> 100 µM (inactive),> 100 µM (inactive),> 100 µM (inactive)
CCCc1ccc(OCC(=O)N/N=C/c2c(-c3ccccc3)[nH]c3ccccc23)cc1,14.1 µM (inactive),27.7 µM (inactive),35.8 µM (inactive),14 µM (inactive),22.4 µM (inactive),24 µM (inactive),12.9 µM (inactive),11.5 µM (inactive),4.91 µM (inactive),15.4 µM (inactive),7.85 µM (inactive),21.1 µM (inactive),8.69 µM (inactive),14.6 µM (inactive),9.38 µM (inactive),4.99 µM,13.1 µM (inactive),5.48 µM (inactive),–
Cc1cccc(NS(=O)(=O)c2ccc(/N=N/c3c(O)c(C(=O)O)cc4ccccc34)cc2)n1,> 100 µM (inactive),> 100 µM (inactive),> 100 µM (inactive),–,> 100 µM (inactive),> 100 µM (inactive),> 100 µM (inactive),> 100 µM (inactive),> 100 µM (inactive),> 100 µM (inactive),> 100 µM (inactive),> 100 µM (inactive),> 100 µM (inactive),> 100 µM (inactive),–,> 100 µM,> 100 µM (inactive),> 100 µM (inactive),–
CCCCCC#CCOC(=O)C(=[N+]=[N-])P(=O)(c1ccccc1)c1ccccc1,> 10 µM (inactive),> 10 µM (inactive),> 10 µM (inactive),> 10 µM (inactive),> 10 µM (inactive),> 10 µM (inactive),> 10 µM (inactive),> 10 µM (inactive),> 10 µM (inactive),> 10 µM (inactive),> 10 µM (inactive),–,> 10 µM (inactive),–,> 10 µM (inactive),> 10 µM,> 10 µM (inactive),9.84 µM (inactive),> 10 µM (inactive)
CC1(C)Cc2c(sc3[nH]c(=S)[nH]c(=S)c23)CS1,85.9 µM (inactive),32.7 µM (inactive),54.8 µM (inactive),40.5 µM (inactive),–,31.8 µM (inactive),88.3 µM (inactive),30.2 µM (inactive),45.8 µM (inactive),18.2 µM (inactive),20.6 µM (inactive),30.5 µM (inactive),–,–,32.8 µM (inactive),33.3 µM,–,25.1 µM (inactive),33.9 µM (inactive)
O=C(CSCC(=O)N/N=C/c1ccc2c(c1)OCO2)N/N=C/c1ccc2c(c1)OCO2,> 100 µM (inactive),> 100 µM (inactive),> 100 µM (inactive),> 100 µM (inactive),> 100 µM (inactive),> 100 µM (inactive),> 100 µM (inactive),58.9 µM (inactive),> 100 µM (inactive),30.3 µM (inactive),49.2 µM (inactive),> 100 µM (inactive),44.6 µM (inactive),64.1 µM (inactive),> 100 µM (inactive),> 100 µM,> 100 µM (inactive),49.3 µM (inactive),–
O=C(CCc1ccccc1CO)NCCc1ccccc1,> 100 µM (inactive),> 100 µM (inactive),15.9 µM (inactive),> 100 µM (inactive),> 100 µM (inactive),36.5 µM (inactive),> 100 µM (inactive),> 100 µM (inactive),> 100 µM (inactive),> 100 µM (inactive),–,> 100 µM (inactive),> 100 µM (inactive),> 100 µM (inactive),–,> 100 µM,> 100 µM (inactive),> 100 µM (inactive),–
